# Experimental data taken from PubChem BioAssay (NCI).
# Where “and” joins values, the source holds several entries; their conditions need not be identical. Equal entries are not always repeated.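 Step 1: Grow cells in 96-well plates. Step 2: Expose to compound for 48 hours at 5 concentrations. Step 3: Interpolate endpoints linearly; if unreached, use highest concentration. The concentration for 50% growth inhibition is given as GI50. TGI denotes the concentration required for complete inhibition of growth.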
# How the values were obtained:
# Test in all cases: growth of human tumour cells (NCI), 48 h
# DU-145 prostate = tested on: DU-145 prostate
# 786-0 renal = tested on: 786-0 renal
# A549 NSCLC = tested on: A549 NSCLC
# SF-539 CNS = tested on: SF-539 CNS
# MALME-3M melanoma = tested on: MALME-3M melanoma
# HT29 colon = tested on: HT29 colon
# RXF 393 renal = tested on: RXF 393 renal
# SF-268 CNS = tested on: SF-268 CNS
# SF-295 CNS = tested on: SF-295 CNS
# OVCAR-5 ovarian = tested on: OVCAR-5 ovarian
# EKVX NSCLC = tested on: EKVX NSCLC
# SNB-75 CNS = tested on: SNB-75 CNS
# IGROV1 ovarian = tested on: IGROV1 ovarian
# HOP-92 NSCLC = tested on: HOP-92 NSCLC
# MCF7 breast = tested on: MCF7 breast
# SK-MEL-5 melanoma = tested on: SK-MEL-5 melanoma
# NCI-H460 lung = tested on: NCI-H460 lung
# MDA-MB-231 breast = tested on: MDA-MB-231 breast
# SK-MEL-28 melanoma = tested on: SK-MEL-28 melanoma
# TK-10 renal = tested on: TK-10 renal
# A498 renal = tested on: A498 renal
# OVCAR-8 ovarian = tested on: OVCAR-8 ovarian
# SW-620 colon = tested on: SW-620 colon
# CAKI-1 renal = tested on: CAKI-1 renal
# HL-60(TB) leukemia = tested on: HL-60(TB) leukemia
# RPMI-8226 leukemia = tested on: RPMI-8226 leukemia
# HCT-15 colon = tested on: HCT-15 colon
# NCI-H226 lung = tested on: NCI-H226 lung
# UO-31 renal = tested on: UO-31 renal
# LOX IMVI melanoma = tested on: LOX IMVI melanoma
# SR leukemia = tested on: SR leukemia
# MOLT-4 leukemia = tested on: MOLT-4 leukemia
# UACC-257 melanoma = tested on: UACC-257 melanoma
# UACC-62 melanoma = tested on: UACC-62 melanoma
# SK-OV-3 ovarian = tested on: SK-OV-3 ovarian
# NCI-H23 lung = tested on: NCI-H23 lung
# CCRF-CEM leukemia = tested on: CCRF-CEM leukemia
# K-562 leukemia = tested on: K-562 leukemia
# SK-MEL-2 melanoma = tested on: SK-MEL-2 melanoma
# PC-3 prostate = tested on: PC-3 prostate
# HS 578T breast = tested on: HS 578T breast
# HCT-116 colon = tested on: HCT-116 colon
# U251 CNS = tested on: U251 CNS
# M14 melanoma = tested on: M14 melanoma
# SN12C renal = tested on: SN12C renal
# HOP-62 NSCLC = tested on: HOP-62 NSCLC
# MDA-MB-435 = tested on: MDA-MB-435
# NCI/ADR-RES ovarian = tested on: NCI/ADR-RES ovarian
# SNB-19 CNS = tested on: SNB-19 CNS
# BT-549 breast = tested on: BT-549 breast
# T-47D breast = tested on: T-47D breast
# KM12 colon = tested on: KM12 colon
# HCC-2998 colon = tested on: HCC-2998 colon
# COLO 205 colon = tested on: COLO 205 colon
# ACHN renal = tested on: ACHN renal
# OVCAR-4 ovarian = tested on: OVCAR-4 ovarian
# NCI-H522 lung = tested on: NCI-H522 lung
# OVCAR-3 ovarian = tested on: OVCAR-3 ovarian
structure (smiles),measurement,setting,value
COc1cc2c(Nc3ccc(Cl)c(Cl)c3F)ncnc2cc1OCC1C[C@@H]2CN(C)C[C@@H]2C1 (stereo not given in full),GI50,DU-145 prostate,751 nM and 532 nM and 673 nM
same,TGI,DU-145 prostate,13600 nM and > 10000 nM and 13500 nM
same,GI50,786-0 renal,1110 nM and 1060 nM and 1030 nM
same,TGI,786-0 renal,2580 nM and 2900 nM and 2850 nM
same,GI50,A549 NSCLC,1230 nM and 1350 nM and 1280 nM
same,TGI,A549 NSCLC,4050 nM and > 5680 nM and 7930 nM
same,GI50,SF-539 CNS,1470 nM and 1480 nM and 1580 nM
same,TGI,SF-539 CNS,3000 nM and 3010 nM and 3360 nM
same,GI50,MALME-3M melanoma,1790 nM and 1580 nM
same,TGI,MALME-3M melanoma,4250 nM and 3540 nM and 3630 nM
same,GI50,HT29 colon,695 nM and 759 nM and 621 nM
same,TGI,HT29 colon,4620 nM and 5860 nM and 4380 nM
same,GI50,RXF 393 renal,808 nM and 690 nM and 846 nM
same,TGI,RXF 393 renal,2360 nM and 2410 nM and 2510 nM
same,GI50,SF-268 CNS,1250 nM and 951 nM and 1290 nM
same,TGI,SF-268 CNS,4310 nM and > 4820 nM and 7740 nM
same,GI50,SF-295 CNS,1610 nM and 1540 nM and 1460 nM
same,TGI,SF-295 CNS,3410 nM and 3260 nM and 3310 nM
same,GI50,OVCAR-5 ovarian,247 nM and 532 nM and 646 nM
same,TGI,OVCAR-5 ovarian,5350 nM and > 10000 nM and 13600 nM
same,GI50,EKVX NSCLC,33 nM and 101 nM
same,TGI,EKVX NSCLC,> 6550 nM and 15200 nM
same,GI50,SNB-75 CNS,406 nM and 430 nM and 822 nM
same,TGI,SNB-75 CNS,2030 nM and 5860 nM
same,GI50,IGROV1 ovarian,112 nM and 28.4 nM and 50.7 nM
same,TGI,IGROV1 ovarian,1950 nM and 791 nM and 1440 nM
same,GI50,HOP-92 NSCLC,247 nM and 195 nM and 1500 nM
same,TGI,HOP-92 NSCLC,1850 nM and 1800 nM and 6780 nM
same,GI50,MCF7 breast,806 nM and 1190 nM and 1520 nM
same,TGI,MCF7 breast,6370 nM and > 6900 nM and 8050 nM
same,GI50,SK-MEL-5 melanoma,1610 nM and 1550 nM and 1570 nM
same,TGI,SK-MEL-5 melanoma,3010 nM and 2930 nM and 2940 nM
same,GI50,NCI-H460 lung,2660 nM and 2730 nM and 3350 nM
same,TGI,NCI-H460 lung,9160 nM and > 10000 nM and 13500 nM
same,GI50,MDA-MB-231 breast,1410 nM and 1120 nM and 1500 nM
same,TGI,MDA-MB-231 breast,4300 nM and 3020 nM and 4880 nM
same,GI50,SK-MEL-28 melanoma,1600 nM and 1570 nM and 1830 nM
same,TGI,SK-MEL-28 melanoma,3330 nM and 3220 nM and 4150 nM
same,GI50,TK-10 renal,109 nM and 30.2 nM and 47.2 nM
same,TGI,TK-10 renal,1760 nM and 1410 nM and 1450 nM
same,GI50,A498 renal,186 nM and 433 nM and 278 nM
same,TGI,A498 renal,1490 nM and 2030 nM and 2050 nM
same,GI50,OVCAR-8 ovarian,2060 nM and 2090 nM and 2430 nM
same,TGI,OVCAR-8 ovarian,13800 nM and > 10000 nM and 13600 nM
same,GI50,SW-620 colon,1600 nM and 1460 nM and 1720 nM
same,TGI,SW-620 colon,3560 nM and 4060 nM and 5060 nM
same,GI50,CAKI-1 renal,219 nM and 511 nM and 206 nM
same,TGI,CAKI-1 renal,2750 nM and 2360 nM and 2320 nM
same,GI50,HL-60(TB) leukemia,2310 nM and 1990 nM and 2430 nM
same,TGI,HL-60(TB) leukemia,5720 nM and 4730 nM and 5730 nM
same,GI50,RPMI-8226 leukemia,1980 nM and 1490 nM and 1930 nM
same,TGI,RPMI-8226 leukemia,4950 nM and 4290 nM and 5970 nM
same,GI50,HCT-15 colon,1140 nM and 1250 nM and 1130 nM
same,TGI,HCT-15 colon,3700 nM and 5420 nM and 4510 nM
same,GI50,NCI-H226 lung,3050 nM and > 4500 nM and 2170 nM
same,TGI,NCI-H226 lung,15100 nM and > 10000 nM and 14700 nM
same,GI50,UO-31 renal,171 nM and 101 nM and 177 nM
same,TGI,UO-31 renal,1930 nM and 1610 nM and 1870 nM
same,GI50,LOX IMVI melanoma,953 nM and 1180 nM
same,TGI,LOX IMVI melanoma,2310 nM and 2490 nM and 2460 nM
same,GI50,SR leukemia,2060 nM and 2090 nM and 1920 nM
same,TGI,SR leukemia,5490 nM and 5210 nM and 5390 nM
same,GI50,MOLT-4 leukemia,2180 nM and 1860 nM and 2230 nM
same,TGI,MOLT-4 leukemia,7030 nM and 7850 nM and 8670 nM
same,GI50,UACC-257 melanoma,1760 nM and 1680 nM and 1950 nM
same,TGI,UACC-257 melanoma,3640 nM and 3570 nM and 4050 nM
same,GI50,UACC-62 melanoma,1910 nM and 1540 nM and 1880 nM
same,TGI,UACC-62 melanoma,4150 nM and 3800 nM and 4410 nM
same,GI50,SK-OV-3 ovarian,234 nM and 241 nM and 195 nM
same,TGI,SK-OV-3 ovarian,902 nM and 1510 nM and 865 nM
same,GI50,NCI-H23 lung,1980 nM and 2100 nM
same,TGI,NCI-H23 lung,7010 nM and > 6380 nM and 9220 nM
same,TGI,CCRF-CEM leukemia,7560 nM and 1240 nM and 10500 nM
same,GI50,K-562 leukemia,240 nM and 114 nM and 170 nM
same,TGI,K-562 leukemia,2690 nM and > 7770 nM and 3140 nM
same,GI50,SK-MEL-2 melanoma,2320 nM and 1920 nM and 2050 nM
same,TGI,SK-MEL-2 melanoma,4830 nM and 4010 nM and 4470 nM
same,GI50,PC-3 prostate,1530 nM and 1360 nM and 2120 nM
same,TGI,PC-3 prostate,11600 nM and > 9560 nM and 8990 nM
same,GI50,HS 578T breast,1130 nM and 1400 nM and 1540 nM
same,TGI,HS 578T breast,4670 nM and 5450 nM and 5830 nM
same,GI50,HCT-116 colon,2210 nM and 1590 nM and 1820 nM
same,TGI,HCT-116 colon,10900 nM and > 8580 nM and 9060 nM
same,GI50,U251 CNS,1520 nM and 1800 nM and 2300 nM
same,TGI,U251 CNS,3410 nM and 4430 nM and 6600 nM
same,GI50,M14 melanoma,1770 nM and 1670 nM and 1820 nM
same,TGI,M14 melanoma,3500 nM and 3530 nM and 3770 nM
same,GI50,SN12C renal,703 nM and 548 nM and 1050 nM
same,TGI,SN12C renal,12600 nM and > 10000 nM and 12200 nM
same,GI50,HOP-62 NSCLC,1080 nM and 1000 nM and 1520 nM
same,TGI,HOP-62 NSCLC,4170 nM and > 4900 nM and 5750 nM
same,GI50,MDA-MB-435,1570 nM and 1780 nM and 1850 nM
same,TGI,MDA-MB-435,3050 nM and 3900 nM and 4290 nM
same,GI50,NCI/ADR-RES ovarian,1730 nM and 1570 nM and 1220 nM
same,TGI,NCI/ADR-RES ovarian,9930 nM and > 9380 nM and 7350 nM
same,GI50,SNB-19 CNS,2170 nM and 2390 nM and 2040 nM
same,TGI,SNB-19 CNS,8760 nM and > 6910 nM and 7070 nM
same,GI50,BT-549 breast,4680 nM and 3760 nM and 2390 nM
same,TGI,BT-549 breast,13700 nM and > 10000 nM and 7660 nM
same,GI50,T-47D breast,465 nM and 363 nM and 330 nM
same,TGI,T-47D breast,6560 nM and > 10000 nM and 10200 nM
same,GI50,KM12 colon,2940 nM and 3500 nM and 3850 nM
same,TGI,KM12 colon,9030 nM and > 10000 nM and 15700 nM
same,GI50,HCC-2998 colon,2370 nM and 1410 nM and 1820 nM
same,TGI,HCC-2998 colon,7100 nM and > 5780 nM and 5030 nM
same,GI50,COLO 205 colon,1810 nM and 1830 nM and 1720 nM
same,TGI,COLO 205 colon,3470 nM and 4320 nM and 3930 nM
same,GI50,ACHN renal,46.8 nM and 51.2 nM and 55.3 nM
same,TGI,ACHN renal,3480 nM and > 7360 nM and 5740 nM
same,GI50,OVCAR-4 ovarian,1580 nM and 1690 nM and 1750 nM
same,TGI,OVCAR-4 ovarian,13400 nM and > 10000 nM and 14000 nM
same,GI50,NCI-H522 lung,304 nM and 75.2 nM and 640 nM
same,TGI,NCI-H522 lung,2530 nM and 1660 nM and 3100 nM
same,GI50,OVCAR-3 ovarian,1010 nM and 422 nM and 1790 nM
same,TGI,OVCAR-3 ovarian,8180 nM and > 9270 nM and 14700 nM
